# Source: patent US20070259888A1, “Novel Compounds” (ASTRAZENECA AB, priority 2006, published 2007)
# Columns and labels:
# [1] = biological target: T1, human M2 receptor (human Muscarinic receptor subtype 2) (Homo sapiens, UniProt P08172); test: hM2 receptor GTPγS binding; type: biochemical; conditions: CHO membranes expressing hM2, GTPγ35S binding; for EC50: read-out: hM2_EC50
# T1 construct: purchased Perkin-Elmer RBHM2M; host or cells: Chinese hamster ovary cells (CHO), membranes
# T1 sequence (P08172 1-466): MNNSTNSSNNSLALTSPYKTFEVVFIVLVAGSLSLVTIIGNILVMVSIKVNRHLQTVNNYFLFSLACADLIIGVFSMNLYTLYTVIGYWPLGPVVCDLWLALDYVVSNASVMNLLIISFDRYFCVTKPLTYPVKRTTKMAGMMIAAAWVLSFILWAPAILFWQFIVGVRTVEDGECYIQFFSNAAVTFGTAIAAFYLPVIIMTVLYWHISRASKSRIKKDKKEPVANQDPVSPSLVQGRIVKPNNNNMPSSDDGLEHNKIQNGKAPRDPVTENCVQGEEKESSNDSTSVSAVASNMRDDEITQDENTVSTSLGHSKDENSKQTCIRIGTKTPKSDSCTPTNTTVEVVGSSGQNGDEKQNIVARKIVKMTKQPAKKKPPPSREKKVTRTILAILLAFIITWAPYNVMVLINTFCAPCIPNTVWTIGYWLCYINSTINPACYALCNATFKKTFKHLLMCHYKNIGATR
# Experimental: hM2 Receptor GTPyS Binding
# Membranes produced from Chinese hamster ovary cells (CHO) expressing the cloned human M2 receptor (human Muscarinic receptor subtype 2, gene bank access NM_000739), were obtained from Perkin-Elmer (RBHM2M). The membranes were thawed at 37° C., passed 3 times through a 23-gauge blunt-end needle, diluted in the GTPγS binding buffer (50 mM Hepes, 20 mM NaOH, 100 mM NaCl, 1 mM EDTA, 5 mM MgCl2, pH 7.4, 100 μM DTT). The EC50, IC50 and Emax of the compounds of the invention were evaluated from 10-point dose-response curves (three fold concentration range) done in 60 μl in 384-well non-specific binding surface plate (Corning). Ten microliters from the dose-response curves plate (5× concentration) were transferred to another 384 well plate containing the following: 10 μg of hM2 membranes, 500 μg of Flashblue beads (Perkin-Elmer) and GDP in a 25 μl volume. An additional 15 μl containing 3.3× (55000 dpm) of GTPγ^35S (0.4 nM final) were added to the wells resulting in a total well volume of 50 μl. Basal and maximal stimulated GTPγ^35S binding was determined in absence and presence of 30 μM of acetylcholine agonist. The membranes/beads mix were pre-incubated for 15 minutes at room temperature with 25 μM GDP prior to distribution in plates (12.5 μM final). The reversal of acetylcholine-induced stimulation (2 μM final) of GTPγ^35S binding was used to assay the antagonist properties (IC50) of the compounds. The plates were incubated for 60 minutes at room temperature with shaking, then centrifuged at 2000 rpm for 5 minutes. The radioactivity (cpm) was counted in a Trilux (Perkin-Elmer).
# Values of EC50, IC50 and Emax were obtained using sigmoidal fits of a non-linear curve-fitting program (XLfit version 5.0.6 from ID Business Solutions Limited, Guildford, UK) of percent-stimulated GTPγ^35S binding vs. log (molar ligand).
# All EC50 and IC50 values are reported as geometric means of ‘n’ independent experiments. […] The IC50 was the concentration of the compound of the invention at which 50% inhibition of acetylcholine GTPγ^35S binding stimulation has been observed.
# [2] = biological target: T2, hM1 (human Muscarinic receptor subtype 1) (Homo sapiens, UniProt P11229); test: Human M1 calcium mobilization FLIPR assay; type: cell-based; conditions: CHO cells expressing hM1, FLIPR; for EC50: read-out: hM1EC50; for Emax: read-out: hM1Emax
# T2 construct: expressed in transfected cells; host or cells: CHO cells (chinese hamster ovary cells, ATCC)
# T2 sequence (P11229 1-460): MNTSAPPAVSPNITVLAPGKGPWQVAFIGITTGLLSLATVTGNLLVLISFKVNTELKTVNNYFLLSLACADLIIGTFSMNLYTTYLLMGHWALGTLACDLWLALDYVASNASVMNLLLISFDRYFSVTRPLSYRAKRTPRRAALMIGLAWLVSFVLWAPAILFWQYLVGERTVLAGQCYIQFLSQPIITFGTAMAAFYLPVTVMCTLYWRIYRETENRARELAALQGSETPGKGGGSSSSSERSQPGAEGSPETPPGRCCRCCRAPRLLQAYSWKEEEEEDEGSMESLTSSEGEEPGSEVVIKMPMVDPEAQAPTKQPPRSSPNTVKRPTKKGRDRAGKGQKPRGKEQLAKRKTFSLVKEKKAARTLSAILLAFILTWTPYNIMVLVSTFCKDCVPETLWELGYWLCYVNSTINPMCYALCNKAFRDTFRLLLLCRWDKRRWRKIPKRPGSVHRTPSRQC
# Experimental: The compound activity in the present invention (EC50 or IC50) was measured using a 384 plate-based imaging assay that monitors drug induced intracellular Ca^2+ release in whole cells. Activation of hM1 (human Muscarinic receptor subtype 1, gene bank access NM_000738), rM1 (rat Muscarinic receptor subtype 1, gene bank access NM_080773), hM3 (human Muscarinic receptor subtype 3, gene bank access NM_000740NM_000740) and hM5 (human Muscarinic receptor subtype 5, gene bank access NM_0121258) receptors expressed in CHO cells (chinese hamster ovary cells, ATCC) was quantified in a Molecular Devices FLIPR II™ instrument as an increase in fluorescent signal. Inhibition of hM3 and hM5 by compounds was determined by the decrease in fluorescent signal in response to 2 nM acetylcholine activation.
# CHO cells were plated in 384-black polylysine coated plate (Costar) at 8000 cells/well/50 μl for 24 hours or 4000 cells/well for 48 hours in a humidified incubator (5% CO2 and 37° C.) in DMEM/F12 medium without selection agent. Prior to the experiment the cell culture medium was removed from the plates by inversion. A loading solution of 30 μl of Hank's balanced salt solution, 10 mM Hepes and 2.5 mM Probenicid at Ph 7.4 (Cat no. 311-520-VL, Wisent) with 2 μM calcium indicator dye (FLUO-3AM, Molecular Probes F14202) was added to each well. Plates were incubated at 37° C. for 60 minutes prior to start the experiment. The incubation was terminated by washing the cells four times in assay buffer, leaving a residual 25 μl buffer per well. Cell plates were then transferred to the FLIPR, ready for compound additions.
# The day of experiment, acetylcholine and compounds were diluted in three-fold concentration range (10 points serial dilution) for addition by FLIPR instrument. For all calcium assays, a baseline reading was taken for 30 seconds followed by the addition of 12.5 μl (25 μl for hM1 and rM1) of compounds, resulting in a total well volume of 37.5 μl (50 μl for hM1 and rM1). Data were collected every 1.6 seconds for 300 seconds. For hM3 and hM5 an additional 12.5 μl of acetylcholine (2 nM final) was added at 300 seconds. After this addition of acetylcholine (producing a final volume of 50 μl), the FLIPR continued to collect data every 2 seconds for 240 seconds. The fluorescence emission was read using filter 1 (emission 520-545 nm) by the FLIPR on board CCD camera.
# Calcium mobilization output data were calculated as the maximal relative fluorescence unit (RFU) minus the minimal value for both compound and agonist reading frame (except for hM1 and rM1 using only the maximal RFU). Data were analyzed using sigmoidal fits of a non-linear curve-fitting program (XLfit version 5.0.6 from ID Business Solutions Limited, Guildford, UK). All EC50 and IC50 values are reported as geometric means of ‘n’ independent experiments.
Emax [1] [%],EC50 [1] [nM],EC50 [2] [nM],Emax [2] [%],Compound
30,1080,157,75,"CCOC[C@@H]1CCCN(C[C@H]2CCCC[C@@H]2NC(=O)C2CCCCC2)C1 [N-((1S,2R)-2-{[(3R)-3-(ethoxymethyl)piperidin-1-yl]methyl}cyclohexyl)cyclohexanecarboxamide]"
> 12,> 30000,130,70,"O=C(N[C@H]1CCCC[C@@H]1CN1CCCCCC1)c1ccc(-n2cccn2)cc1 [N-[(1S,2R)-2-(azepan-1-ylmethyl)cyclohexyl]-4-(1H-pyrazol-1-yl)benzamide]"
0,> 30000,26,82,"O=C(N[C@H]1CCCC[C@@H]1CN1CCCCC1)c1ccc(-n2cccn2)nc1 [N-[(1S,2R)-2-(piperidin-1-ylmethyl)cyclohexyl]-6-(1H-pyrazol-1-yl)nicotinamide]"
22,216,5,95,"C=CCOC[C@@H]1CCCN(C[C@H]2CCCC[C@@H]2NC(=O)c2ccc(-n3ccnc3)nc2)C1 [N-[(1S,2R)-2-({(3R)-3-[(allyloxy)methyl]piperidin-1-yl}methyl)cyclohexyl]-6-(1H-imidazol-1-yl)nicotinamide]"
